What follows are molecules tested against T1, apelin receptor (APJ) (Homo sapiens, UniProt P35414) (assay: In vitro apelin agonist activity (methods of Giddings et al., Apelin-13 as positive control)). Conditions: in vitro apelin agonist activity, methods of Giddings et al., Apelin-13 as positive control; read-out: EC50 (nM) Ave.
T1 sequence (P35414 1-380): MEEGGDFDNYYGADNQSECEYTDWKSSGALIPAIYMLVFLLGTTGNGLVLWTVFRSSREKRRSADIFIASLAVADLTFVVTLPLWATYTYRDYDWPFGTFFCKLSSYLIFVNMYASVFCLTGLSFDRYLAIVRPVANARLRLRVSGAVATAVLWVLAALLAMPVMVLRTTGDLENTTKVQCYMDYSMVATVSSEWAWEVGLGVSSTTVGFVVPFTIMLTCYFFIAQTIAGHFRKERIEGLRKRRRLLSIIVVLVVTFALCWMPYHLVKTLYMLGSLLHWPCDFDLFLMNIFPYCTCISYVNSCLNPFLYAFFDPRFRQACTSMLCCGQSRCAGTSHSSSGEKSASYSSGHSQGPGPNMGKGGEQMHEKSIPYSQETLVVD
Type: cell-based
From the text: Characterization of the Apelin Agonist Activity of the Compounds
1:39-47, the contents of which are hereby incorporated by reference in its entirety. Using the methods described in Giddings et al. and Apelin-13 as a positive control.

Structure (SMILES)	EC50 [nM]
O=C(C[C@H](CCN1CCCC(F)(F)C1)NC(=O)c1cc(-c2ccccc2C(F)(F)F)n(C2CCCC2)n1)Nc1nccs1 [compound 426, (3S)-3-({1-cyclopentyl-5-[2-(trifluoromethyl)phenyl]-1H-pyrazol-3-yl}formamido)-5-(3,3-difluoropiperidin-1-yl)-N-(1,3-thiazol-2-yl)pentanamide]	10.6
O=C(O)C[C@H](CCN1CC(F)(F)C(F)(F)C1)NC(=O)c1cc(-c2ccccc2C(F)(F)F)n(C2CCCC2)n1 [compound 574, (3S)-3-({1-cyclopentyl-5-[2-(trifluoromethyl)phenyl]-1H-pyrazol-3-yl}formamido)-5-(3,3,4,4-tetrafluoropyrrolidin-1-yl)pentanoic acid]	981
O=C(O)C[C@H](CCN1CCCC[C@H]1C(F)(F)F)NC(=O)c1cc(-c2ccccc2C(F)(F)F)n(C2CCCC2)n1 [compound 487, (3S)-3-({1-cyclopentyl-5-[2-(trifluoromethyl)phenyl]-1H-pyrazol-3-yl}formamido)-5-[(2S)-2-(trifluoromethyl)piperidin-1-yl]pentanoic acid]	277
O=C(C[C@H](CCN1CCC(F)(F)CC1)NC(=O)c1cc(-c2ccccc2C(F)(F)F)n(C2CCCC2)n1)NCC1CCCCC1 [compound 440, (3S)-N-(cyclohexylmethyl)-3-({1-cyclopentyl-5-[2-(trifluoromethyl)phenyl]-1H-pyrazol-3-yl]formamido)-5-(4,4-difluoropiperidin-1-yl)pentanamide]	301
O=C(O)C[C@H](CCN1CC(F)CC(F)C1)NC(=O)c1cc(-c2ccccc2C(F)(F)F)n(C2CCCC2)n1 (stereo partly drawn) [compound 639, (3S)-3-({1-cyclopentyl-5-[2-(trifluoromethyl)phenyl]-1H-pyrazol-3-yl}formamido)-5-(3,5-difluoropiperidin-1-yl)pentanoic acid]	40
COc1cccc(OC)c1-c1cc(C(=O)N[C@@H](CCN2CCCCC2)Cc2nnc(C)o2)nn1C1CCCC1 [compound 343, 1-cyclopentyl-5-(2,6-dimethoxyphenyl)-N-[(2S)-1-(5-methyl-1,3,4-oxadiazol-2-yl)-4-(piperidin-1-yl)butan-2-yl]-1H-pyrazole-3-carboxamide]	1530
O=C(C[C@H](CCN1CCCCC1)NC(=O)c1cc(-c2c(OCC(F)(F)F)cccc2OCC(F)(F)F)n(C2CCCC2)n1)NC1CCC1 [compound 353]	> 10000
COc1cccc(OC)c1-c1cc(C(=O)N[C@@H](CCN2CCCCC2)Cc2nnn[nH]2)nn1C1CCCC1 [compound 364, 1-cyclopentyl-5-(2,6-dimethoxyphenyl)-N-[(2S)-4-(piperidin-1-yl)-1-(1H-1,2,3,4-tetrazol-5-yl)butan-2-yl]-1H-pyrazole-3-carboxamide]	235
Cc1cccc(C)c1-c1cc(C(=O)N[C@@H](CCN2CCCCC2)CC(=O)NC2CCC2)nn1C1CCCC1 [compound 371, (3S)-N-cyclobutyl-3-{[1-cyclopentyl-5-(2,6-dimethylphenyl)-1H-pyrazol-3-yl]formamido}-5-(piperidin-1-yl)pentanamide]	3840
O=C(O)C[C@H](CCN1CCCC(F)(F)C1)NC(=O)c1cc(-c2ccccc2C(F)(F)F)n(C2CCOCC2)n1 [compound 553, (3S)-5-(3,3-difluoropiperidin-1-yl)-3-{[1-(oxan-4-yl)-5-[2-(trifluoromethyl)phenyl]-1H-pyrazol-3-yl]formamido}pentanoic acid]	1480
CCc1ccccc1-c1cc(C(=O)N[C@@H](CCN2CCCC(F)(F)C2)CC(=O)O)nn1C1CCCC1 [compound 404, (3S)-3-{[1-cyclopentyl-5-(2-ethylphenyl)-1H-pyrazol-3-yl]formamido}-5-(3,3-difluoropiperidin-1-yl)pentanoic acid]	65
O=C(N[C@@H](CC1CCCC1)C(=O)O)c1cc(-c2ccccc2C(F)(F)F)n(C2CCCC2)n1 [compound 526, (2S)-3-cyclopentyl-2-({1-cyclopentyl-5-[2-(trifluoromethyl)phenyl]-1H-pyrazol-3-yl}formamido)propanoic acid]	1720
CC(C)[C@H](NC(=O)c1cc(-c2ccccc2C(F)(F)F)n(C2CCCC2)n1)C(=O)O [compound 528, (2S)-2-({1-cyclopentyl-5-[2-(trifluoromethyl)phenyl]-1H-pyrazol-3-yl}formamido)-3-methylbutanoic acid]	> 10000
CC(C(=O)NC1CCC1)[C@H](CCN1CC2C(C1)C2(F)F)NC(=O)c1cc(-c2ccccc2C(F)(F)F)n(C2CCCC2)n1 (stereo partly drawn) [compound 636, (3S)-N-cyclobutyl-3-({1-cyclopentyl-5-[2-(trifluoromethyl)phenyl]-1H-pyrazol-3-yl}formamido)-5-{6,6-difluoro-3-azabicyclo[3.1.0]hexan-3-yl}-2-methylpentanamide]	158
COc1cccc(OC)c1-c1cc(C(=O)N[C@@H](CCc2ccccc2)Cc2nnn[nH]2)nn1C1CCCC1 [compound 390, 1-cyclopentyl-5-(2,6-dimethoxyphenyl)-N-[(2S)-4-phenyl-1-(1H-1,2,3,4-tetrazol-5-yl)butan-2-yl]-1H-pyrazole-3-carboxamide]	429
O=C(C[C@H](CCN1CCCCC1)NC(=O)c1cc(-c2ccccc2C(F)(F)F)n(C2CCCC2)n1)NC1CC(F)(F)C1 [compound 520, (3S)-3-({1-cyclopentyl-5-[2-(trifluoromethyl)phenyl]-1H-pyrazol-3-yl}formamido)-N-(3,3-difluorocyclobutyl)-5-(piperidin-1-yl)pentanamide]	45
COc1cccc(OC)c1-c1cc(C(=O)N[C@@H](CCc2ccc(F)cc2)CC(=O)Nc2nccs2)nn1C1CCCC1 [compound 417, (3S)-3-{[1-cyclopentyl-5-(2,6-dimethoxyphenyl)-1H-pyrazol-3-yl]formamido}-5-(4-fluorophenyl)-N-(1,3-thiazol-2-yl)pentanamide]	36

More lines, in order of falling EC50, values ahead:

EC50 [nM]	Structure (SMILES)
8680	CC1(NC(=O)C[C@H](CC(=O)N2CCCCC2)NC(=O)c2cc(-c3ccccc3C(F)(F)F)n(C3CCCC3)n2)COC1 [compound 550, (3R)-3-({1-cyclopentyl-5-[2-(trifluoromethyl)phenyl]-1H-pyrazol-3-yl}formamido)-N-(3-methyloxetan-3-yl)-5-oxo-5-(piperidin-1-yl)pentanamide]
2590	COc1cccc(OC)c1-c1cc(C(=O)N[C@@H](CCCC2CCCCC2)CC(=O)O)nn1CC(C)C [compound 301, (3S)-6-cyclohexyl-3-{[5-(2,6-dimethoxyphenyl)-1-(2-methylpropyl)-1H-pyrazol-3-yl]formamido}hexanoic acid]
1240	O=C(O)C[C@H](CCc1ccc(F)cc1)NC(=O)c1cc(-c2ccccc2C(F)(F)F)n(C2CCCC2)n1 [compound 463]
1060	O=C(O)C[C@H](CC(=O)N1CCCC(F)(F)C1)NC(=O)c1cc(-c2ccccc2C(F)(F)F)n(C2CCCC2)n1 [compound 509, (3S)-3-({1-cyclopentyl-5-[2-(trifluoromethyl)phenyl]-1H-pyrazol-3-yl}formamido)-5-(3,3-difluoropiperidin-1-yl)-5-oxopentanoic acid]
205	O=C(O)C[C@@H](NC(=O)c1cc(-c2ccccc2C(F)(F)F)n(C2CCCC2)n1)C(=O)NC1CCCCC1 [compound 544, (3R)-3-(cyclohexylcarbamoyl)-3-({1-cyclopentyl-5-[2-(trifluoromethyl)phenyl]-1H-pyrazol-3-yl]formamido)propanoic acid]
124	C[C@@H](C[C@@H](CC(=O)O)NC(=O)c1cc(-c2ccccc2C(F)(F)F)n(C2CCCC2)n1)N1CCC(F)(F)C1 [compound 572, (3S,5S)-3-({1-cyclopentyl-5-[2-(trifluoromethyl)phenyl]-1H-pyrazol-3-yl}formamido)-5-(3,3-difluoropyrrolidin-1-yl)hexanoic acid]
107	COc1cccc(OC)c1-c1cc(C(=O)N[C@@H](CCN2CCCCCC2)CC(=O)NC2CCC2)nn1C1CCCC1 [compound 324, (3S)-5-(azepan-1-yl)-N-cyclobutyl-3-{[1-cyclopentyl-5-(2,6-dimethoxyphenyl)-1H-pyrazol-3-yl]formamido}pentanamide]
77	Cc1cc(C)n(CC[C@@H](CC(=O)N(C)c2nccs2)NC(=O)c2cc(-c3ccccc3C(F)(F)F)n(C3CCCC3)n2)n1 [compound 502, (3S)-3-({1-cyclopentyl-5-[2-(trifluoromethyl)phenyl]-1H-pyrazol-3-yl}formamido)-5-(3,5-dimethyl-1H-pyrazol-1-yl)-N-methyl-N-(1,3-thiazol-2-yl)pentanamide]
43	O=C(O)C[C@H](CCN1CC[C@@H](F)[C@@H](F)C1)NC(=O)c1cc(-c2ccccc2C(F)(F)F)n(C2CCCC2)n1 [compound 610]
12.5	CCc1ccccc1-c1cc(C(=O)N[C@@H](CCN2CCC(F)(F)CC2)CC(=O)Nc2nccs2)nn1C1CCCC1 [compound 409, (3S)-3-{[1-cyclopentyl-5-(2-ethylphenyl)-1H-pyrazol-3-yl]formamido}-5-(4,4-difluoropiperidin-1-yl)-N-(1,3-thiazol-2-yl)pentanamide]
6.1	O=C(C[C@H](CCN1CCCC(F)(F)C1)NC(=O)c1cc(-c2ccccc2Cl)n(C2CCCC2)n1)Nc1nccs1 [compound 429, (3S)-3-{[5-(2-chlorophenyl)-1-cyclopentyl-1H-pyrazol-3-yl]formamido}-5-(3,3-difluoropiperidin-1-yl)-N-(1,3-thiazol-2-yl)pentanamide]

— patent publication US11535630B2, “Apelin receptor (APJ) agonists and uses thereof” (Research Triangle Institute, priority 2015, dated 2022)
